# Measured values from patent publication US8513306B2, “Enhancement of urogenital function” (priority 2005, dated 2013).
# Columns and labels:
# [1] = in vivo; cited from earlier work
# [2] = system: younger subject two; assay: Trial: small amounts of amantadine with creatine, with or without a PDE5 inhibitor ED drug; assay type: in vivo, human; conditions: for Results in conjugal sexual activity: ED drugs in low doses over the past four years; for Effectiveness of small dose of the PDE5 inhibitor ED drug alone: VIAGRA about 12.5 mg or LEVITRA about 2.5 mg, normally
# Procedure: In a trial, the younger subject two ingested small amounts of amantadine along with about 88 mg of creatine. The small amounts of amantadine were measured by opening a capsule of amantadine and pouring out small amounts. Ten individual administrations used less than one 100 mg capsule of amantadine. Thus, the dose of amantadine was approximately 5 mg to approximately 10 mg.
# The subject noted a body weight that varied little from about 78 kg over the past twenty plus years. The subject noted no use of blood pressure or other prescribed medications on a regular basis.
# [3] = system: younger subject one; assay: Observation of the younger subject on lycopene-containing foods; assay type: in vivo, human; conditions: on occasion, for one day at a time
# Description: Other exemplary compositions may include lycopene. […] Lycopene is present in tomato products while other foods of interest include certain beans and blue berries. An exemplary method includes administering such a composition. For example, a composition that includes creatine and lycopene may be administered to a subject to treat a urologic disorder. An exemplary method includes administering creatine and lyocpene to treat a urologic disorder.
# [4] = system: patients; conditions: in vivo; cited from earlier work
# [5] = system: younger subject two; assay: Trial: occasional amantadine for flu prophylaxis, nocturnal urinary symptoms; assay type: in vivo, human; conditions: occasional administration of about 100 mg
# Procedure: A trial involving the younger subject two involved occasional administration of about 100 mg of amantadine for flu prophylaxis.
# [6] = system: subject one with nocturia and diagnosed moderate prostate enlargement; assay: Trial: single dose of creatine monohydrate powder in solution prior to sleep; assay type: in vivo, human; conditions: person two
# Procedure: A trial provided creatine monohydrate as a powder (about 100% creatine monohydrate) and administered a single dose (approximately 0.1 to 0.2 g) of the creatine monohydrate powder in a solution (about 0.09 to 0.17 g creatine) approximately 0.5 to 3 hours prior to sleep. Urinary flow-related symptoms were reduced for the immediate sleep period and for sleep periods during the following 48 hours.
# The subject weighed approximately 80 kg (about 175 lbs). Thus, the dosage was about 0.9 mg of creatine per kg of body weight. Range may vary by individual and prior consumption of a creatine compound. A general range for CSUE may be from about 0.4 mg creatine monohydrate to about 4.0 mg creatine monohydrate per kg body weight per day (e.g., about 32 mg to about 320 mg per day for a subject weighing about 80 kg). As already mentioned, the various trials used creatine monohydrate powder (about 100%) in solution. Thus, in terms of creatine content, the general range for CSUE may be from about 0.35 mg creatine per kg body weight per day (e.g., about 0.4*(3.124.4/5) mg) to about 3.5 mg creatine per kg body weight per day (e.g., 4.0*(3.124.4/5) mg). While dose may vary from patient to patient, the dose is typically less than the dose for CSR.
# [7] = system: two male subjects with urinary symptoms; assay: Additional trials: creatine monohydrate in solution, loading phase and maintenance phase; assay type: in vivo, human
# Procedure: […] […] […] The post-loading phase is referred to herein as a maintenance phase. The dose may vary during the maintenance phase; however, it is generally at least 50% less than the dose used in a loading phase.
# In these trials, urinary flow-related symptoms were reduced.
# However, in various trials, a delay in relief was experienced that corresponded to the dose size where a larger than required dose would actually delay relief (e.g. beyond 24 hours to as much as 72 hours). […] Such trials indicate that a dosage range exists for relief of symptoms and for timing of the relief.
# [8] = system: varsity football and track athletes; conditions: 3 g per day without prior loading; cited from earlier work
# [9] = single dose approx 0.1 to 0.2 g in solution prior to sleep
compound,measurement,setting,value
"C[C@]12CC[C@H](OS(=O)(=O)O)CC1=CC[C@@H]1[C@@H]2CC[C@]2(C)C(=O)CC[C@@H]12 [DHEA-S, DHEA-sulfate]",Levels of testosterone and androstenedione,[1],increased levels
"CCCc1nc(C)c2c(=O)nc(-c3cc(S(=O)(=O)N4CCN(CC)CC4)ccc3OCC)[nH]n12 [LEVITRA®, 4-[2-ethoxy-5-(4-ethylpiperazin-1-yl)sulfonyl-phenyl]-9-methyl-7-propyl-3,5,6,8-tetrazabicyclo[4.3.0]nona-3,7,9-trien-2-one]",Results in conjugal sexual activity,[2],good results
same,Effectiveness of small dose of the PDE5 inhibitor ED drug alone,[2],somewhat marginally effective
"CC(C)=CCC/C(C)=C/C=C/C(C)=C/C=C/C(C)=C/C=C/C=C(C)/C=C/C=C(C)/C=C/C=C(\C)CCC=C(C)C [Lycopene, lycopene]",Nocturnal urine stream slowing,[3],a lack of nocturnal urine stream slowing
"CC12CC3CC(C)(C1)CC(N)(C3)C2 [Memantine, 1-amino-3,5-dimethyl-adamantane]",Tolerability,[4],generally well-tolerated
"CCCc1nn(C)c2c(=O)[nH]c(-c3cc(S(=O)(=O)N4CCN(C)CC4)ccc3OCC)nc12.O=C(O)CC(O)(CC(=O)O)C(=O)O [VIAGRA®, 1-[4-ethoxy-3-(6,7-dihydro-1-methyl-7-oxo-3-propyl-1H-pyrazolo[4,3-d]pyrimidin-5-yl)phenylsulfonyl]-4-methylpiperazine citrate]",Results in conjugal sexual activity,[2],good results
same,Effectiveness of small dose of the PDE5 inhibitor ED drug alone,[2],somewhat marginally effective
"NC12CC3CC(CC(C3)C1)C2 [amantadine, adamantan-1-amine]",Nocturnal urinary symptoms,[5],reduction in nocturnal urinary symptoms
same,Effect compared with DHEA taken to enhance libido (readiness for and enjoyment of orgasm),[2]; about 5 mg of amantadine,similarly beneficial but distinct effect
same,Effect relative to that of the PDE5 inhibitor ED drugs,[2]; subject's observation,additive
CN(CC(=O)O)C(=N)N.O [creatine monohydrate],Urinary flow-related symptoms,"[6]; single dose approx 0.1 to 0.2 g in solution 0.5 to 3 hours prior to sleep, immediate sleep period and sleep periods of following 48 hours",reduced
same,Nocturnal erections,[6]; [9],increase in nocturnal erections
same,Testicular blood flow as evidenced by palpable scrotal content enlargement,[6]; [9],increase in testicular blood flow
same,Symptoms (urinary),"[7]; both subjects, loading phase 0.1 to 1.0 g, then maintenance about 50 to 150 mg every other day",symptoms were relieved
same,Initiation of urine stream at night,"[7]; doses larger than about 0.25 g in the maintenance phase, younger subject",more difficult until 24 hours to 48 hours later
same,Urinary symptom reduction,"[7]; doses of greater than 1 g after the loading phase, both subjects",less urinary symptom reduction
same,Ergogenic effect,[8],did not observe ergogenic effect
